Laboratory results published in patent US4396626A, “Cyclic compounds and their use” (Beecham Group Limited, priority 1980, dated 1983).
Counter-ions that a name gives are not always drawn.

Columns and labels:
[1] = system: phenyl-p-quinone writhing in mice; experiment: Analgesic activity: phenyl-p-quinone induced writhing in mice; format: in vivo, male T/O mice; conditions: 1 hour prior to phenyl-p-quinone injection, observed 8 minutes, Litchfield and Wilcoxon; for ED50: Mus musculus, po, read-out: ED50 (mice prevented from writhing)
Experimental: Groups of 10 male T/O mice weighing between 20 and 25 g were injected intraperitoneally with 0.2 ml of a 0.02% solution of phenyl-p-quinone maintained at 37° C. […] Compounds were administered orally 1 hour prior to phenyl-p-quinone injection. The percentage of mice prevented from writhing in each group was plotted against dose of compound on log probit paper and the ED50 was calculated by the method of Litchfield, J. T. and Wilcoxon, F. (1949), J. Pharmac. exp. Ther., 96 (2), 99-113.

[2] = system: carrageenin-induced oedema in rat paw; experiment: Anti-inflammatory activity: standard rat paw carrageenin-induced oedema test; format: in vivo, male Wistar rats; conditions: 1 hr before carrageenin
Experimental: The sodium salt of compound (1) was tested for anti-inflammatory activity by the standard rat paw carrageenin-induced oedema test:
Groups of 8 male Wistar rats weighing between 120 and 165 g. were dosed orally with the compound 1 hr. before the sub-cutaneous injection of 0.1 ml 1.5% carrageenin into a paw to induce oedema. The duration of the oedema was 3-31/2 hr. The significance of results was assessed by Student's `t` test.

| SMILES | ED50 [1] | ED50 (mice prevented from writhing) ([1]; oral, listed as No salt thereof) | % inhibition of oedema w.r.t. methylcellulose control ([2]; 1.67 mg/kg p.o., *0.001 < p < 0.01) | % inhibition of oedema w.r.t. methylcellulose control ([2]; 5 mg/kg p.o., **p < 0.001) | % inhibition of oedema w.r.t. methylcellulose control ([2]; 15 mg/kg p.o., **p < 0.001) | ED25 ([2]; rat, oral, read-out: ED25 (inhibition of oedema)) |
| --- | --- | --- | --- | --- | --- | --- |
| Cn1c(CC(=O)O)cc(C(F)(F)F)c1C(=O)c1ccc(Cl)cc1 [(1), 5-p-Chlorobenzoyl-1-methyl-4-trifluoromethylpyrrole-2-acetic acid] | 1.75 mg/kg |  |  |  |  |  |
| CC(=O)CCc1cc(C(F)(F)F)c(C(=O)c2ccc(Cl)cc2)n1C [(13), 4-[5'-(4"-chlorobenzoyl)-1'-methyl-4'-trifluoromethyl-2'-pyroyl]butan-2-one] | 25 mg/kg |  |  |  |  |  |
| Cn1c(CC(=O)O)cc(C(F)(F)F)c1C(=O)c1ccc(Cl)cc1 [sodium salt of compound (1)] |  | 1.6 mg/kg p.o. | 18% | 25% | 30% | 5.5 mg/kg |
